The results in this text go back to ChEMBL document CHEMBL1201862, “PubChem BioAssay data set” (2004).

The source made the active and inactive calls.

Holding throughout (assay type): functional
Assay [1] addresses Death-associated protein kinase 3 (Homo sapiens, UniProt O43293).
Assay [2] has as its target Platelet-derived growth factor receptor alpha (Homo sapiens, UniProt P16234). As to the kind of experiment: Navigating the Kinome. Panel member name: PDGFRA.
The target of assay [3] is Vascular endothelial growth factor receptor 1 (Homo sapiens, UniProt P17948).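 Further: measured within a kinome-wide profiling panel, FLT1 as the panel member.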
Chain of Vascular endothelial growth factor receptor 1 (P17948 whole entry): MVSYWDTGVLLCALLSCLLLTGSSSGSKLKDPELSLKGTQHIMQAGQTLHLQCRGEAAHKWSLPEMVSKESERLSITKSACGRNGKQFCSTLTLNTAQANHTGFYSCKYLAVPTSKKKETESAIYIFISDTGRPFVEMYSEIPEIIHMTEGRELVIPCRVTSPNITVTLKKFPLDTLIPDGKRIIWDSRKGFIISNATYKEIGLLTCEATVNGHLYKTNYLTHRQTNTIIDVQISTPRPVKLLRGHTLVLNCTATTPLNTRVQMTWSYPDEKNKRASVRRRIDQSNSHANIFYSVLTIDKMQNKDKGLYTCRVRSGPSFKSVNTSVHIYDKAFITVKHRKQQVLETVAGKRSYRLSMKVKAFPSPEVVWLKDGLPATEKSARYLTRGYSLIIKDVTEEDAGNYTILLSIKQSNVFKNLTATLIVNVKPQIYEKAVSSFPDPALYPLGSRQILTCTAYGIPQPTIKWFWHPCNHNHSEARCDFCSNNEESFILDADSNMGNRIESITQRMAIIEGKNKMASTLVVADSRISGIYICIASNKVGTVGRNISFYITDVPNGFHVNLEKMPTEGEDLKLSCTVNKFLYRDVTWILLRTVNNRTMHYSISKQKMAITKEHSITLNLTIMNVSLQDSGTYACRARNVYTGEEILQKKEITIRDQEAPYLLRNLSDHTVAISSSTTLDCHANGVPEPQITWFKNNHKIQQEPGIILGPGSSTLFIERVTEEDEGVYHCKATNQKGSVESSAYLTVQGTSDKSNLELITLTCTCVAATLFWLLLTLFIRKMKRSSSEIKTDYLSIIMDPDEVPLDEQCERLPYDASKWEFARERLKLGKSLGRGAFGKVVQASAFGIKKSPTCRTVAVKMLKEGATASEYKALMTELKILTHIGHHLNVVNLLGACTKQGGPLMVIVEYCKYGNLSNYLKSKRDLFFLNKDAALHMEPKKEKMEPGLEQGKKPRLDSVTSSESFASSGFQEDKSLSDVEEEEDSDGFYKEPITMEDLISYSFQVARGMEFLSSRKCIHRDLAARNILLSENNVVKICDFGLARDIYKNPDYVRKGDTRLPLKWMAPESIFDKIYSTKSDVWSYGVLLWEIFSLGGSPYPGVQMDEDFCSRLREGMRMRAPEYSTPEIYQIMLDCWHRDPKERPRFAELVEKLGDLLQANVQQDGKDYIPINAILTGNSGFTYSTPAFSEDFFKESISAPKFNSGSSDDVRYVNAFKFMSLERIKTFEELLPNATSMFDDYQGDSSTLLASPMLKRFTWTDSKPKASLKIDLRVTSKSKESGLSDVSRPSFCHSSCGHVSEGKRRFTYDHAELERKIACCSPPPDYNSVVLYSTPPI
In assay [4] the target is Dual specificity protein kinase CLK2 (Homo sapiens, UniProt P49760).
Chain of Dual specificity protein kinase CLK2 (P49760 whole entry): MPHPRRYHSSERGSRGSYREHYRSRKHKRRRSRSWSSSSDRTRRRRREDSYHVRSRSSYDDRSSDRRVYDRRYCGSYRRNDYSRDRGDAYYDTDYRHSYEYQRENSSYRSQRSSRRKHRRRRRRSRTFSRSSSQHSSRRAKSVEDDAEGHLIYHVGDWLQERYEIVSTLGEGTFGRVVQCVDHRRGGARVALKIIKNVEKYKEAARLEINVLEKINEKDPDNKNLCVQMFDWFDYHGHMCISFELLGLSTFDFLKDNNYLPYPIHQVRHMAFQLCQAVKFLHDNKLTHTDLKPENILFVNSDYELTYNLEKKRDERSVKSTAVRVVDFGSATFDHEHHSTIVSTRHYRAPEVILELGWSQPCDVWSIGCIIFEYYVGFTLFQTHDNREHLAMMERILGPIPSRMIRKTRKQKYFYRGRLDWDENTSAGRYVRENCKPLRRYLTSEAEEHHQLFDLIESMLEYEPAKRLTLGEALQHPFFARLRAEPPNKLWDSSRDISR
Assay [5] addresses T1, Serine/threonine-protein kinase D3 (Homo sapiens, UniProt O94806).
T1 sequence (O94806 whole entry): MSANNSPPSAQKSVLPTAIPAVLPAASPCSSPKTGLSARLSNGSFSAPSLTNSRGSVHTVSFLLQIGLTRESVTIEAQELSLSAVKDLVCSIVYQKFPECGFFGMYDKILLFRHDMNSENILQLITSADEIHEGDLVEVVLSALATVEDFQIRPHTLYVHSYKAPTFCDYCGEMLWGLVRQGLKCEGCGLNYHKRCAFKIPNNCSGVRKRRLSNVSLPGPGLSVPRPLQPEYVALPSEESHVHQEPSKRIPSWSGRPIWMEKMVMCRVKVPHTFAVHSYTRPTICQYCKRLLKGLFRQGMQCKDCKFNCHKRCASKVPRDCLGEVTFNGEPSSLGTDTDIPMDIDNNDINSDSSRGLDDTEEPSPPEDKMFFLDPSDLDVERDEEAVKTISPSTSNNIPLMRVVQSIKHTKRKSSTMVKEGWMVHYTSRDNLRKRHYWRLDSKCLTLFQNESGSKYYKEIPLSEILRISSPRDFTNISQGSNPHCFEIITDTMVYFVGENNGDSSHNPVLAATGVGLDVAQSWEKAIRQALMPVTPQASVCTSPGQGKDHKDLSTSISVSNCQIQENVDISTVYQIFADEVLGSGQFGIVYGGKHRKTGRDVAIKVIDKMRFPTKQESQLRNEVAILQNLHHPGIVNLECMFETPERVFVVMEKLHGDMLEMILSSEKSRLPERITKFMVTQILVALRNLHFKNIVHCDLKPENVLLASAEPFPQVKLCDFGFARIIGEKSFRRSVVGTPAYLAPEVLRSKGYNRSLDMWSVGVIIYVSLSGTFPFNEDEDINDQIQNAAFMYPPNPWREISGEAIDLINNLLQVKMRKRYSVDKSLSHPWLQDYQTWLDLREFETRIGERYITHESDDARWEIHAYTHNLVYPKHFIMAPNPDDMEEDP

For assay [6], the target named is Serine/threonine-protein kinase pim-1 (Homo sapiens, UniProt P11309).
Chain of Serine/threonine-protein kinase pim-1 (P11309 whole entry): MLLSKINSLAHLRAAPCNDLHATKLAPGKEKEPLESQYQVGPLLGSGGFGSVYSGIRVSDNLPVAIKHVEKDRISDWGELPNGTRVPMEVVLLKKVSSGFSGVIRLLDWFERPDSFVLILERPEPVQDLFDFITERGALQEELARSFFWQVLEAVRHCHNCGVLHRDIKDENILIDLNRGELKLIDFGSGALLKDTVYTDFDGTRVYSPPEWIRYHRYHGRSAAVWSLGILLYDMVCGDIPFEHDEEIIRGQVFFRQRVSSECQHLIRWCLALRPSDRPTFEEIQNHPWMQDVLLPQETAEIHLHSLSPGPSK
Assay [7] has as its target Fibroblast growth factor receptor 1 (Homo sapiens, UniProt P11362).
Assay [8] has as its target T2, Serine/threonine-protein kinase TAO1 (Homo sapiens, UniProt Q7L7X3).
T2 sequence (Q7L7X3 whole entry): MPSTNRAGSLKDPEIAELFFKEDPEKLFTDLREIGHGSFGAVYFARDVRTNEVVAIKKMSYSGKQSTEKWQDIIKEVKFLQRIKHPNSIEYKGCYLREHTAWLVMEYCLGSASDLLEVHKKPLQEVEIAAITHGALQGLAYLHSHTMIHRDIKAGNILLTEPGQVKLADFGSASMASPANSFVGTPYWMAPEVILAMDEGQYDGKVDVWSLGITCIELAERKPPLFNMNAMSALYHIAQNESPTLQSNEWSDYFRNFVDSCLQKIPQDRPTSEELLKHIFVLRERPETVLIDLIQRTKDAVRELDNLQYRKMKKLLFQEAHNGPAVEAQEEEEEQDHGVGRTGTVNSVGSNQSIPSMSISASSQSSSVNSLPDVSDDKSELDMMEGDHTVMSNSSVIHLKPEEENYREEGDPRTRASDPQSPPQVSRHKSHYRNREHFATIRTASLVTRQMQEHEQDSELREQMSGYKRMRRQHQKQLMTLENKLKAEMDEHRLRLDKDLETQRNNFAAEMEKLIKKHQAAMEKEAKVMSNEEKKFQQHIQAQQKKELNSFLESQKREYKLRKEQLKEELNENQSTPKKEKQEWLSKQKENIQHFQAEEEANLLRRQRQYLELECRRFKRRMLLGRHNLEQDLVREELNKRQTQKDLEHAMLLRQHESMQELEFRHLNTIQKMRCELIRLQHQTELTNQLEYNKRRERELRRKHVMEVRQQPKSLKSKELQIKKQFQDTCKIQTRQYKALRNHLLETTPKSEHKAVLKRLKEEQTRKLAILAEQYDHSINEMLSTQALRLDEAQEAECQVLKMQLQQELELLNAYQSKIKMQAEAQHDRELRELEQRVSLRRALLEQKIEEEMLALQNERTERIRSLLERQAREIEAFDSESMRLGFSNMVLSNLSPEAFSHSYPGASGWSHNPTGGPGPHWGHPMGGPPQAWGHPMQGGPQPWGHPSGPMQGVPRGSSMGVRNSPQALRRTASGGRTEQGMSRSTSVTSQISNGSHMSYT

In assay [9] the target is T3, Serine/threonine-protein kinase Chk1 (Homo sapiens, UniProt O14757).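 Further: measured as one member of a kinome-wide kinase profiling panel.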
T3 sequence (O14757 whole entry): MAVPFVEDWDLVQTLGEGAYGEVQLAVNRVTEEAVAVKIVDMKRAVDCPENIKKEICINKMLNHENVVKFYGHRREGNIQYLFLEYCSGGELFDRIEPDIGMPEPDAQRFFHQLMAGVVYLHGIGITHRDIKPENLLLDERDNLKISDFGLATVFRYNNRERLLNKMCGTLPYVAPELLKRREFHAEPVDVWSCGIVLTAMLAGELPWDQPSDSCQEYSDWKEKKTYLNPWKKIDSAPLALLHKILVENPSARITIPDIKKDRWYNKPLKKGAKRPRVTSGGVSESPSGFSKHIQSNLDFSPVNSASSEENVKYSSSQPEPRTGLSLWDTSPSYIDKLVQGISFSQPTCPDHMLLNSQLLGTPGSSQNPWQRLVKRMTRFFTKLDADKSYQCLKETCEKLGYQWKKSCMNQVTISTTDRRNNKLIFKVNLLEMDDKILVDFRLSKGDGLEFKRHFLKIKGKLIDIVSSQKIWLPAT

In the next assay the target is Aurora kinase B (Homo sapiens, UniProt Q96GD4).
Chain of Aurora kinase B (Q96GD4 whole entry): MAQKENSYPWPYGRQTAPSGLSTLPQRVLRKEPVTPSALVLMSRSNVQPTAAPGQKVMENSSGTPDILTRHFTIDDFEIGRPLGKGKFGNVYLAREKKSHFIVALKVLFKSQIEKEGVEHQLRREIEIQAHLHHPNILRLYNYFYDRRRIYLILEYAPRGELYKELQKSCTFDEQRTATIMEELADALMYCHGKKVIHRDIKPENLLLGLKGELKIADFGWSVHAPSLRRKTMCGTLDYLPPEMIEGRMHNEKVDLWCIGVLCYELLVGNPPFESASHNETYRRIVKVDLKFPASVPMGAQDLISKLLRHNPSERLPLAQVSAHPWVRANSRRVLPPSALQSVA
The target of assay [10] is Cyclin-dependent kinase 7 (Homo sapiens, UniProt P50613).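 Further: value comes from a kinome-wide kinase profiling panel in which CDK7 is one member.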
Chain of Cyclin-dependent kinase 7 (P50613 whole entry): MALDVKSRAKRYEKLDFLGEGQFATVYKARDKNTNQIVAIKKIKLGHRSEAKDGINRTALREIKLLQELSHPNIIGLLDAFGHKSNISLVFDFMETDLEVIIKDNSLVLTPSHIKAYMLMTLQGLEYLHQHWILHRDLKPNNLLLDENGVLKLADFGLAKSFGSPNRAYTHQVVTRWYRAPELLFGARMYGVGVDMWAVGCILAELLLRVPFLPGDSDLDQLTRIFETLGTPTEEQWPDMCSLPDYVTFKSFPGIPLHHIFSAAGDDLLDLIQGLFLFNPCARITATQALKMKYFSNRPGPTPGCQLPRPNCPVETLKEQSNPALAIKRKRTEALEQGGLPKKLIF
In assay [11] the target is cAMP-dependent protein kinase catalytic subunit alpha (Homo sapiens, UniProt P17612).
The target in assay [12] is Mitogen-activated protein kinase kinase kinase kinase 4 (Homo sapiens, UniProt O95819).
Chain of Mitogen-activated protein kinase kinase kinase kinase 4 (O95819 whole entry): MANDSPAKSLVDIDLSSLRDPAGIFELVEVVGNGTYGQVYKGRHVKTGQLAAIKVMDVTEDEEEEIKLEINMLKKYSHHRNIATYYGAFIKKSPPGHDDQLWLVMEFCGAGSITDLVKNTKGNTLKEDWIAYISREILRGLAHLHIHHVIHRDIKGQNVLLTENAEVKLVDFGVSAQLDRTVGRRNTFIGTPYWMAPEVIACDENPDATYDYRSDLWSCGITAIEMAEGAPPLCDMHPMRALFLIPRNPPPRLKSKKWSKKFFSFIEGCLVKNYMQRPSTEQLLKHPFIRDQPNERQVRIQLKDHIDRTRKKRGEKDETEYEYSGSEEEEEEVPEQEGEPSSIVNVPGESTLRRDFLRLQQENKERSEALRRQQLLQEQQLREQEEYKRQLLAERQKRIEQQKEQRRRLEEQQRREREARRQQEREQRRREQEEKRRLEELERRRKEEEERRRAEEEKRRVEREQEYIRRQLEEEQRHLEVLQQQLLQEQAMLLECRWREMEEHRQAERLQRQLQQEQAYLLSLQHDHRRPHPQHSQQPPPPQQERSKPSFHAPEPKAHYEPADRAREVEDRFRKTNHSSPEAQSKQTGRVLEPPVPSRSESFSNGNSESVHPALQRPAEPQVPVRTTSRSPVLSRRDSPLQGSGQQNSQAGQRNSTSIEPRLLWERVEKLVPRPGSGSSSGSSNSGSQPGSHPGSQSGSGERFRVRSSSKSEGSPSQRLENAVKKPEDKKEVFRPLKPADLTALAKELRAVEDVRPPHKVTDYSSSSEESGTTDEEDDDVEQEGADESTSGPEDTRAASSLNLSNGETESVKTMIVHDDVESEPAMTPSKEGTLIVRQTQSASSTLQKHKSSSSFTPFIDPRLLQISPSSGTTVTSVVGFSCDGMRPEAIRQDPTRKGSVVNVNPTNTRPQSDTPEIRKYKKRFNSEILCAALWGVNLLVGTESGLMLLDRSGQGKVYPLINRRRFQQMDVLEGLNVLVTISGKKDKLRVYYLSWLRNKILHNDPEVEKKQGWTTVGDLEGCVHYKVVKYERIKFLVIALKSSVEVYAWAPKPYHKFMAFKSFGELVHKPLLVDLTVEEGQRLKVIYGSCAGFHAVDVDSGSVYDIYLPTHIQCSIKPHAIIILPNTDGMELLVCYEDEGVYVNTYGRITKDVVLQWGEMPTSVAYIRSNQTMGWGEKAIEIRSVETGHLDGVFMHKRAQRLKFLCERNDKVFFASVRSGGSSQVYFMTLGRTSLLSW
Assay [13] deals with Dual specificity tyrosine-phosphorylation-regulated kinase 1A (Homo sapiens, UniProt Q13627).

Chain of Death-associated protein kinase 3 (O43293 whole entry): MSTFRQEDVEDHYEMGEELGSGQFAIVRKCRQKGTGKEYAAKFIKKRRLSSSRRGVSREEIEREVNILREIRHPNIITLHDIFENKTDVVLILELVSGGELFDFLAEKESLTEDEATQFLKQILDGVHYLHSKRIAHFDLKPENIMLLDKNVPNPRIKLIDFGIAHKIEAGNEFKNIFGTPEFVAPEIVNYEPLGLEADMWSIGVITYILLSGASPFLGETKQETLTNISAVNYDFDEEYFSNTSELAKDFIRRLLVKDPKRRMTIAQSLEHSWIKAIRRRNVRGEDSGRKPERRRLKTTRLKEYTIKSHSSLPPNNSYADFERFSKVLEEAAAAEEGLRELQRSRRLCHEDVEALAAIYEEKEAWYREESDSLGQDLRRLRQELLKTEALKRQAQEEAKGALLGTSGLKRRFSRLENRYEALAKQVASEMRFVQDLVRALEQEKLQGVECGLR

Consider `COC(C(=O)N1Cc2[nH]nc(NC(=O)c3ccc(N4CCN(C)CC4)cc3)c2C1)c1ccccc1` (centres undefined), for which the Ki in [1] was 0.794 µM (active); in assay [2], > 2 µM (inactive); in [3], 0.0398 µM (active).
Turning to `CC(C)(O)c1cn(-c2ccc3[nH]ncc3c2)nn1`, the inhibition constant (Ki) is 6.31 µM (active) in assay [4]; 50.1 µM (active) in assay [5]; 2 µM (active) in assay [1]; 50.1 µM (active) in assay [6]; 39.8 µM (active) in assay [7]; 79.4 µM (active) in assay [8]. Moreover, the Ki was 63.1 µM (active) in [9]; 63.1 µM (active) in assay [2]; 31.6 µM (active) at Aurora kinase B; 10 µM (active) in assay [10]; 79.4 µM (active) in assay [3]; 10 µM (active) in assay [11]. In addition, the Ki in assay [12] is 39.8 µM (active); in assay [13] it was 5.01 µM (active).
With `NC1CCC(Nc2nccc(-c3c[nH]c4ncccc34)n2)CC1` (centres undefined), the Ki in assay [4] was 0.00501 µM (active); in assay [5], 0.00631 µM (active); in [1], 0.158 µM (active); in assay [6], 0.251 µM (active); in assay [7], 3.98 µM (active); in [8] it was 0.316 µM (active). For the same compound, the Ki in assay [9] is 2 µM (active); on Aurora kinase B, 2 µM (active); in assay [10], 0.00398 µM (active); in assay [3] it was > 0.398 µM (inactive); in [11], 0.0501 µM (active); in [12], 0.0631 µM (active). In assay [13], the Ki was 0.00316 µM (active).
On to `OCc1cc(-c2ccc3[nH]ncc3c2)on1`, for which the Ki in assay [4] was 1 µM (active); in assay [5] it was 12.6 µM (active); in assay [1] it was 3.98 µM (active); in assay [6], 15.8 µM (active); in assay [7], 20 µM (active); in assay [8] it was 79.4 µM (active). Also, the Ki in assay [9] was 39.8 µM (active); in assay [2], 39.8 µM (active); on Aurora kinase B, 20 µM (active); in assay [10], 12.6 µM (active); in assay [3], 25.1 µM (active); in assay [11], 5.01 µM (active). Moreover, the Ki was 20 µM (active) in [12] and 0.398 µM (active) in assay [13].

The term Ki denotes the dissociation constant of the complex between target and ligand, obtained from inhibition or displacement.
